Results as given in patent publication US7700797B2, “Use of hydrolysis resistant organomodified silylated surfactants” (Momentive Performance Materials Inc., priority 2006, dated 2010).

Experiments:
[1] = Surface tension, Kruss surface tensiometer; format: physicochemical; conditions: 0.1 wt % in 0.005M NaCl water
Method: Surface tension was measured using a Kruss surface tensiometer, with a sand blasted platinum blade as the sensor. Solutions of the various components were prepared at 0.1 wt % in 0.005M NaCl water (deionized), as an equilibrium aid.

[2] = Spreading of 10 μL droplet on polystyrene Petri dishes; format: physicochemical; conditions: 30 seconds
Method: Spreading was determined by applying a 10 μL droplet, of surfactant solution to polystyrene Petri dishes (Fisher Scientific) and measuring the spread diameter (mm) after 30 seconds, at a relative humidity between 50 and 70% (at 22 to 25° C.). The solution was applied with an automatic pipette to provide droplets of reproducible volume. Deionized water that was further purified with a Millipore filtration system was used to prepare the surfactant solutions.

Compound	Surface Tension [1] [mN/m]	Spread Diameter ([2]; 0.05% surfactant) [mm]	Spread Diameter ([2]; 0.1% surfactant) [mm]	Spread Diameter ([2]; 0.3% surfactant) [mm]	Spread Diameter ([2]; 0.5% surfactant) [mm]
C[Si](C)(C)C[Si](C)(C)CCCOCCOCCOCCOCCO [Product 6]	22.5	40	45	53	47
Octylphenolethoxylate [OPE]	31.8		9		10

Now from value to compound:

Surface Tension [1] [mN/m]	Spread Diameter ([2]; 0.05% surfactant) [mm]	Spread Diameter ([2]; 0.1% surfactant) [mm]	Spread Diameter ([2]; 0.3% surfactant) [mm]	Spread Diameter ([2]; 0.5% surfactant) [mm]	Compound
22.7	30	42	48	49	C[Si](C)(C)CC[Si](C)(C)CCCOCCOCCOCCOCCO [Product 7]
27.7		7		7	C[Si](C)(C)C[Si](C)(C)CCCOCCOCCOCCOCCOCCOCCOCCOCCOCCOCCOCCO [Product 8]
26.7		7		7	C[Si](C)(C)CC[Si](C)(C)CCCOCCOCCOCCOCCOCCOCCOCCOCCOCCOCCOCCO [Product 9]
